Assay results taken from US12187773B2, “Modified GIP peptide analogues” (Antag Therapeutics ApS, priority 2018, dated 2025).
*1 amine or outer side, *2 acyl side, *3 side chain or, on linkers, in order; H or OH if unused. Where a SMILES comes first, the peptide text is derived from it. Side-chain parts run from the residue outwards. The star is where a group is joined. C16 diacid = O=C(O)CCCCCCCCCCCCCCC(=O)*; γGlu = O=C(O)[C@H](CCC(=O)[*:2])N[*:1]; AEEA = NCCOCCOCC(=O)O

Key:
Type in all cases: cell-based
GLP2 receptor (GLP2R) = molecular target: T1, GLP2 receptor (GLP2R) (Homo sapiens, UniProt O95838); experiment: cAMP assay - selectivity, antagonism at GLP2 receptor; conditions: Table 3B; COS-7 cells; agonist GLP2
T1 construct: expressed in transfected cells; host or cells: COS-7 (transient)
T1 sequence (O95838 1-553): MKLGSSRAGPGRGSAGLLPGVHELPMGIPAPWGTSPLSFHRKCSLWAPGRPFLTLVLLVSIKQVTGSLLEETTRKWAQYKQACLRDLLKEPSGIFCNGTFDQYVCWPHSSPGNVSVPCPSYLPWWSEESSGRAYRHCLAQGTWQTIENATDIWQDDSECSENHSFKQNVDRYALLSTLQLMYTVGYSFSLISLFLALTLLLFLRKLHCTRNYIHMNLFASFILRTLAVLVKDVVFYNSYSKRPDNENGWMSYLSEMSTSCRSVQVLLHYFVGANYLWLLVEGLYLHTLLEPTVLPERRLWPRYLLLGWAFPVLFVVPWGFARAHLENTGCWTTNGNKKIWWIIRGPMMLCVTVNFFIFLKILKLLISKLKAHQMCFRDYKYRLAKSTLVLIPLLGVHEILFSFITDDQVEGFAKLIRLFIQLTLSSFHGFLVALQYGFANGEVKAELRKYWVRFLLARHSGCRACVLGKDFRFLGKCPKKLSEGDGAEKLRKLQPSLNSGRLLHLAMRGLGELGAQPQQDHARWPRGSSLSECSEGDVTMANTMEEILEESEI
Description: (§1) Transient transfected COS-7 cells expressing the either of the GLP1 receptor (GLP1R), GLP2 receptor (GLP2R), glucagon receptor (GcgR) or secretin receptor (SCTR) were seeded in white 96-well plates with a density of 3.5*10^4/well. The day after, the cells were washed twice with Hepes buffered saline (HBS) buffer and incubated with HBS and 1 mM 3-isobutyl-1-methylxanthine (IBMX) for 30 min at 37° C. To test for agonistic properties, ligands were added and incubated for 30 min at 37° C. In order to test for antagonistic properties, the cells were preincubated with the antagonists for 10 min prior to the addition the natural agonist for the expressed receptor (GLP1 for GLP1R expressing cells, GLP2 for GLP2R expressing cells, glucagon for the GcgR and secretin for the SCTR) and subsequent incubated for 20 additional min. […] The HitHunter™ cAMP XS assay (DiscoveRx) was carried out according to the manufacturer's instructions.

human GIP receptor [1] = molecular target: T2, human GIP receptor (Homo sapiens, UniProt P48546); experiment: cAMP accumulation, antagonism (DiscoveRx HitHunter cAMP XS assay); design: host or cells: COS-7 (transient, calcium phosphate; pCMV-Script vector); conditions: cAMP antagonism, nM (IC50), Table 1B; DiscoveRx; transiently transfected COS-7 cells
T2 sequence (P48546 22-466): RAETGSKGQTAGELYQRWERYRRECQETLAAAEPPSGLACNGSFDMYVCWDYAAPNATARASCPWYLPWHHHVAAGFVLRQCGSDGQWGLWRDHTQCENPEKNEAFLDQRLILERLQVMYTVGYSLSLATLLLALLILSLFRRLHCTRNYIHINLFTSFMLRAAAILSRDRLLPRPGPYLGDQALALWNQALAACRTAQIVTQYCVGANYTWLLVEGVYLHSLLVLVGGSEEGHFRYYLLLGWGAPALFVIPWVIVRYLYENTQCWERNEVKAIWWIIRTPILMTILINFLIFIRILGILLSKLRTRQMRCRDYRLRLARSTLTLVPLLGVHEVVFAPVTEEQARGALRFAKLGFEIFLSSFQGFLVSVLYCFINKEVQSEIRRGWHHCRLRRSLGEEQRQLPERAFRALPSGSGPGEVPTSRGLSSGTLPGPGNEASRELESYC
In short: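 Transiently transfected COS-7 cells expressing human GIP receptor, pretreated with 1 mM IBMX in HBS 30 min at 37 °C. Agonism: ligand 30 min at 37 °C; antagonism: 10 min antagonist preincubation, then GIP at 50-80% maximal response for 20 min. cAMP measured by HitHunter cAMP XS.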

GLP1 receptor (GLP1R) = molecular target: T3, GLP1 receptor (GLP1R) (Homo sapiens, UniProt P43220); experiment: cAMP assay - selectivity, antagonism at GLP1 receptor; conditions: Table 3A
T3 construct: expressed in transfected cells; host or cells: COS-7 (transient)
Description: as §1

human GIP receptor [2] = molecular target: T2, human GIP receptor; experiment: cAMP agonism (CisBio cAMP Dynamic 2 HTRF assay); conditions: HEK293, read-out: cAMP agonism, % Efficacy, Table 1C, HEK-293 cells
Description: To test for agonistic properties at the GIP receptor, compounds were diluted and added to cells as described above and incubated for 30 min at 37° C. The resulting increase in intracellular cAMP was determined using the CisBio cAMP Dynamic 2 HTRF Assay Kit as described above.

human GIP receptor [3] = molecular target: T2, human GIP receptor; experiment: cAMP accumulation, agonism (DiscoveRx HitHunter cAMP XS assay); design: host or cells: COS-7 (transient, calcium phosphate; pCMV-Script vector); conditions: COS-7, read-out: cAMP agonism, Emax
In short: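 cAMP accumulation measured by HitHunter cAMP XS in COS-7 cells transiently expressing human GIP receptor, after 30 min in HBS with 1 mM IBMX at 37 °C. Antagonists preincubated 10 min before GIP giving 50-80% of maximum, then 20 min more; agonist mode used 30 min ligand exposure.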

glucagon receptor (GcgR) = molecular target: T4, glucagon receptor (GcgR) (Homo sapiens, UniProt P47871); experiment: cAMP assay - selectivity, antagonism at glucagon receptor; conditions: Table 3A; COS-7 cells; agonist glucagon at 50-80% of maximal cAMP
T4 construct: expressed in transfected cells; host or cells: COS-7 (transient)
Description: as §1

human GIP receptor [4] = molecular target: T2, human GIP receptor; experiment: cAMP antagonism (CisBio cAMP Dynamic 2 HTRF assay); design: pCMV-Script vector
In short: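 Four-parameter fits of cAMP dose-response gave pIC50. cAMP fall was quantified by HTRF competition, ratio 665/620 nm after 60 min at room temperature, against a cAMP standard curve.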

secretin receptor (SCTR) = molecular target: T5, secretin receptor (SCTR) (Homo sapiens, UniProt P47872); experiment: cAMP assay - selectivity, antagonism at secretin receptor; conditions: Table 3B; COS-7 cells; agonist secretin
T5 construct: expressed in transfected cells; host or cells: COS-7 (transient)
Description: as §1

T3 sequence (P43220 24-463, species assumed): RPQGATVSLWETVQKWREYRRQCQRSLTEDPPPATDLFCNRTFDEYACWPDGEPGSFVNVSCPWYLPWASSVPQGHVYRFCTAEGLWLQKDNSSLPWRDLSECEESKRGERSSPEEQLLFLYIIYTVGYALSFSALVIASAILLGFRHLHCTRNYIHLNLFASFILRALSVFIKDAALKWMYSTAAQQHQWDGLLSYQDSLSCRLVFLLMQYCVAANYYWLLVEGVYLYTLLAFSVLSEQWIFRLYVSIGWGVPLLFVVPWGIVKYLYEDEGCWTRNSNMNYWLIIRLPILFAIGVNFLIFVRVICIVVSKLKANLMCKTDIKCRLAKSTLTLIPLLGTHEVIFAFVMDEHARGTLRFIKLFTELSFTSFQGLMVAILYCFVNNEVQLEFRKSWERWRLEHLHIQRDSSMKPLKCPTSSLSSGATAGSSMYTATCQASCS
T5 sequence (P47872 23-440, species assumed): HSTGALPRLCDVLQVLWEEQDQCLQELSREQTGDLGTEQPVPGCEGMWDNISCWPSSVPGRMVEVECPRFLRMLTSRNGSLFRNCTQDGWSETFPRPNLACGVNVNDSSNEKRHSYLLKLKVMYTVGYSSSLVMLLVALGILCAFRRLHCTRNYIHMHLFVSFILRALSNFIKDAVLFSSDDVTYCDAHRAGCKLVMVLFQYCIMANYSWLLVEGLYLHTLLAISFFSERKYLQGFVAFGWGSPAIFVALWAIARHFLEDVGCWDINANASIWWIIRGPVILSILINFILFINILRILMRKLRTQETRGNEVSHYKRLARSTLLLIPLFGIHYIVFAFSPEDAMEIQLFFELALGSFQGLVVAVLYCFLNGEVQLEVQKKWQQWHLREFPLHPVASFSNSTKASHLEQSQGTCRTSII
T4 sequence (P47871 26-477, species assumed): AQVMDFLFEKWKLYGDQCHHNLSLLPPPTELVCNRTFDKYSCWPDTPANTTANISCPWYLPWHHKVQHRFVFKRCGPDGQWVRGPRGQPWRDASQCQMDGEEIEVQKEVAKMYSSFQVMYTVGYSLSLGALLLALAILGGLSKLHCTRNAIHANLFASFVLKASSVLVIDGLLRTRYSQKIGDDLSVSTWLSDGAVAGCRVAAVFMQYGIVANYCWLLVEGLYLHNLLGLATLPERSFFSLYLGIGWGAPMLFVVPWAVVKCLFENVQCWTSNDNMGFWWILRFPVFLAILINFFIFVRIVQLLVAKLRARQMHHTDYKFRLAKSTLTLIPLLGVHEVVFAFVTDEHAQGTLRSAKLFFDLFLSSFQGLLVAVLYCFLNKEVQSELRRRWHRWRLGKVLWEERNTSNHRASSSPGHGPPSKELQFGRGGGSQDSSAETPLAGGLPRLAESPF

## CC[C@H](C)[C@H](NC(=O)[C@H](CO)NC(=O)[C@H](Cc1ccc(O)cc1)NC(=O)[C@H](CC(=O)O)NC(=O)[C@H](CO)NC(=O)[C@@H](NC(=O)[C@H](Cc1ccccc1)NC(=O)[C@@H](NC(=O)CNC(=O)[C@@H](N)CO)[C@@H](C)O)[C@@H](C)CC)C(=O)N[C@@H](C)C(=O)N[C@@H](CCSC)C(=O)N[C@@H](CC(=O)O)C(=O)N[C@@H](CCCNC(=N)N)C(=O)N[C@H](C(=O)N[C@@H](CCCCNC(=O)COCCOCCNC(=O)COCCOCCNC(=O)CC[C@H](NC(=O)CCCCCCCCCCCCCCC(=O)O)C(=O)O)C(=O)N[C@@H](CCC(N)=O)C(=O)N[C@@H](CCC(N)=O)C(=O)N[C@@H](CC(=O)O)C(=O)N[C@@H](Cc1ccccc1)C(=O)N[C@H](C(=O)N[C@@H](CC(N)=O)C(=O)N[C@@H](Cc1c[nH]c2ccccc12)C(=O)N[C@@H](CC(C)C)C(=O)N[C@@H](CC(C)C)C(=O)N[C@@H](C)C(=O)N[C@@H](CCC(N)=O)C(=O)N[C@@H](CCCNC(=N)N)C(=O)O)C(C)C)[C@@H](C)CC [AT277] (H-SGTFISDYSIAMDRIK([AEEA-AEEA-γGlu-C16 diacid])QQDFVNWLLAQR-OH; N-terminus assumed)
GLP2 receptor (GLP2R)
  GLP-2R, Antagonism: No antagonism
Human GIP receptor [1]
  IC50: 16 nM
GLP1 receptor (GLP1R); COS-7 cells
  GLP-1R, Antagonism, %inhib: 68%
GLP1 receptor (GLP1R); selectivity index versus GIPR
  GLP-1R, Antagonism, index: 561
Human GIP receptor [2]
  Emax: 8%
Human GIP receptor [3]
  Emax: 9%
Glucagon receptor (GcgR)
  Glucagon R, Antagonism, nM: No antagonism
Human GIP receptor [4]; GIPR, Antagonism, nM, Table 3C, CisBio assay
  IC50: 31.6 nM
Human GIP receptor [4]; Table 1C, CisBio, HEK-293 cells
  cAMP antagonism, % inhib: 84%
Human GIP receptor [4]; Table 3C, CisBio assay
  GIPR, Antagonism, % inhib: 84%
Human GIP receptor [4]; cAMP antagonism, nM (IC50), Table 1C, CisBio, HEK-293 cells, agonist GIP1-42 at EC50
  IC50: 31.6 nM
Secretin receptor (SCTR)
  Secretin R, Antagonism: No antagonism
